{"source": "patent US20080269266A1", "about": "“NOVEL COMPOUNDS 747” (ASTRAZENECA AB, priority 2007, published 2008)", "key": {"human IR": {"biological_target": "T1, human IR (Homo sapiens, UniProt P06213)", "T1 construct": "expressed in transfected cells; host or cells: CHOT cells (CHO stably transfected with human IR)", "T1 sequence (P06213 28-1382)": "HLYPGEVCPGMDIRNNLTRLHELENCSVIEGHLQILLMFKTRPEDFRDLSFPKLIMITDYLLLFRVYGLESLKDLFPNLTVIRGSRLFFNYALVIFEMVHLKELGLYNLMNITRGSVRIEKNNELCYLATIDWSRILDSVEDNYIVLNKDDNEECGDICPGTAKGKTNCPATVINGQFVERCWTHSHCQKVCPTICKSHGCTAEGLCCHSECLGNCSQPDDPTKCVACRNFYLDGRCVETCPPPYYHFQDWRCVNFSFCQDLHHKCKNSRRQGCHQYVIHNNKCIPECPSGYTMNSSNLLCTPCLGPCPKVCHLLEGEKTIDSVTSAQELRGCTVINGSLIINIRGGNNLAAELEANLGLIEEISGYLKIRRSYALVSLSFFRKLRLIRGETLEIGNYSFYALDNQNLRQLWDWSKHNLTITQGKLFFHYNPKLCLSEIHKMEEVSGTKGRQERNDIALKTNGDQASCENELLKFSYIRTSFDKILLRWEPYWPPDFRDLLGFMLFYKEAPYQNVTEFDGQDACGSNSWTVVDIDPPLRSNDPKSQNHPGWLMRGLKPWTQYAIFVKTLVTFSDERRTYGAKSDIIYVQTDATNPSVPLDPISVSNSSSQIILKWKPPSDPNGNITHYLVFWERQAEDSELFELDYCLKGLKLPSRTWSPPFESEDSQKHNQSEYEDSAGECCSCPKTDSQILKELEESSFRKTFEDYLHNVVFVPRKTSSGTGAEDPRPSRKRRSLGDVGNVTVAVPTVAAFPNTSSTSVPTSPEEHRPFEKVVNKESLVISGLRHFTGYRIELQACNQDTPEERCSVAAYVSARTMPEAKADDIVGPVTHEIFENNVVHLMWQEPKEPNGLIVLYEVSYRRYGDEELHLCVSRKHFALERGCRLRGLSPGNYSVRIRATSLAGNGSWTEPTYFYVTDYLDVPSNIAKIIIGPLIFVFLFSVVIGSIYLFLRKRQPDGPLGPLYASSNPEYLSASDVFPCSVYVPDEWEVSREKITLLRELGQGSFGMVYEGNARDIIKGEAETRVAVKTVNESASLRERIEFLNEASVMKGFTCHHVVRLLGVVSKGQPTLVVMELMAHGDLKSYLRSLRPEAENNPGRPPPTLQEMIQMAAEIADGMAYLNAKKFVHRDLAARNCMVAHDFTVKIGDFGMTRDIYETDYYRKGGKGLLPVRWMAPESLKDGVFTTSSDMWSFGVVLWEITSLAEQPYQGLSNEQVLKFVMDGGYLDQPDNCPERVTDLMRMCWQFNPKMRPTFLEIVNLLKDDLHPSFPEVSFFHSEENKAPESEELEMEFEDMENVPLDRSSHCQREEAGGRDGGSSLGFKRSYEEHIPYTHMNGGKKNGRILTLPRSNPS", "test": "Inhibition of Insulin Receptor Phosphorylation in CHOT cells", "format": "cell-based", "conditions": "for IC50: median, CHOT cells stimulated with 30 nM Insulin", "description": "This immunofluorescence end point cell assay measures the ability of a test compound to reduce the measured levels of IR phosphorylation after insulin stimulation in CHOT cells. CHOT cells are Chinese Hamster Ovary cells (CHO) stable transfected with human IR. CHOT cells are routinely cultured in Hams F12 growth medium supplemented with 200 ug/ml Geneticin, 2.5 mM HEPES, 2 mM L-Glutamine (Invitrogen Code no. 25030-024) and 10% (v/v) foetal bovine serum (FBS) in a 5% CO2 air incubator at 37° C.\nTo undertake the assay, the CHOT cells are seeded at 5×10^3 cells/well in Hams F12 medium plus 2.5 mM HEPES, 1% foetal calf serum and 2 mM L-Glutamine in 96-well black Packard View plates (PerkinElmer 6005182) and incubated at 37° C. (+5% CO2) in a humidified incubator. The following day, the plates are dosed with 10 μl of 10× concentrated compound (diluted from 10 mM stock in DMSO and Hams F12 without serum) and the plates are returned to a humidified 37° C. (+5% CO2) incubator for 30 minutes. […]\nFollowing the compound treatment, the CHOT cells are stimulated with a final concentration of 30 nM Insulin (Sigma #I-9278) for 10 minutes at 37° C. […] Additionally, in-house antibodies raised against phospho IR were also used at a suitable titre determined for each batch. […]\nThe Green Fluorescent phospho IR-associated signal in each well was measured using an Acumen Explorer HTS Reader (TTP Labtech Ltd., Cambridge). Phospho IR-associated fluorescence emission can be detected at 530 nm following excitation at 488 nm. The instrument is a laser-scanning fluorescence microplate cytometer, which samples the well at regular intervals and uses threshold algorithms to identify all fluorescent intensities above the solution background without the need to generate and analyse an image. These fluorescent objects can be quantified and provide a measure of the phospho IR levels in cells. Fluorescence dose response data obtained with each compound was exported into a suitable software package (such as Origin) to perform curve fitting analysis. […]"}, "[1]": {"biological_target": "T2, human cytochrome P450 (CYP) 1A2 (Homo sapiens, UniProt P05177)", "T2 construct": "made in house; host or cells: yeast cell lines (microsomal fractions)", "T2 sequence (P05177 1-516)": "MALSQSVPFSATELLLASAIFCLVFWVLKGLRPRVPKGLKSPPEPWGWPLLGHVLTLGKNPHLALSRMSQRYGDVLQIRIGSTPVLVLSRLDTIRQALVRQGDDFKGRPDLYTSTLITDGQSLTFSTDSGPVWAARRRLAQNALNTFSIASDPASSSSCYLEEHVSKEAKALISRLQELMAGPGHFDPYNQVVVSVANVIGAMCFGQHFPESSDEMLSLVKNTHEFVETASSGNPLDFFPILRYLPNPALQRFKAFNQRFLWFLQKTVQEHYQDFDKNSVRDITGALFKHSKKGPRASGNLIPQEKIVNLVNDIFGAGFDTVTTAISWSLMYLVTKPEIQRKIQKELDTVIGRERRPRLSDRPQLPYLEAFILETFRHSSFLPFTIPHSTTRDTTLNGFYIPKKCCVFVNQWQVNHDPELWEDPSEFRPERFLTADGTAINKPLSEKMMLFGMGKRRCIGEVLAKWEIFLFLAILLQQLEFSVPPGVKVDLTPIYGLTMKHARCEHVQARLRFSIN", "test": "Cytochrome P450 Inhibition Assay 1A2", "format": "in vitro ADME", "conditions": "test compound final concentrations 0.1-10 μM; substrate CEC", "description": "The inhibitory potential (IC50) of test compounds against 5 human cytochrome P450 (CYP) isoforms (1A2, 2C9, 2C19, 3A4 and 2D6) was assessed using an automated fluorescent end point in vitro assay modified from Crespi (Crespi and Stresser, 2000). Microsomal subcellular fractions prepared from Yeast cell lines expressing each human CYP isoform were used as an enzyme source in this assay. The activity of the 5 major human CYPs was determined from the biotransformation of a number of coumarin substrates to fluorescent metabolites, in the presence of NADPH. […] Comparison of the fluorescence observed in the presence of varying concentrations of test compound with that seen in its absence allowed an IC50 value to be calculated. Stock solutions of each CYP, with its respective substrate, were prepared in phosphate buffer pH7.4 (see Table 1) and 178 μl was added to the well of a black solid, flat bottom, 300 μl 96 well is microtitre plate (Corning Costar). […] The appropriate solvent controls and substrate blanks were included in each experiment to assess control activity and identify any inherent fluorescence due to the test compounds. […] The plates were read on a fluorimeter (Spectrafluor Plus) at the appropriate excitation and emission wavelengths (listed in Table 2) and the percent activity, corrected for control, was plotted against the test compound concentration."}}, "data": [{"smiles": "CCc1cc(Nc2cc(OC)nc(N3CCC[C@H]3c3cc(-c4ncccn4)no3)n2)n[nH]1", "note": "[Comparative Example A, (S)-6-Methoxy-2-{2-[3-(pyrimid-2-yl)isoxazol-5-yl]pyrrolidin-1-yl}-4-(5-ethyl-1H-pyrazol-3-ylamino)pyrimidine]", "values": [{"measurement": "IC50", "setting": "human IR", "value": 3.25, "unit": "nM"}, {"measurement": "IC50", "setting": "[1]", "value": 1870, "unit": "nM"}]}, {"smiles": "COc1cc(Nc2cc(C)n[nH]2)nc(N2CCC[C@H]2c2cc(-c3ncccn3)no2)n1", "note": "[Example 1, (S)-6-Methoxy-2-{2-[3-(pyrimid-2-yl)isoxazol-5-yl]pyrrolidin-1-yl}-4-(5-methyl-1H-pyrazol-3-ylamino)pyrimidine]", "values": [{"measurement": "difference in the Inhibition of Insulin Receptor Phosphorylation assay", "setting": "human IR; Example 1 compared with Comparative Example A", "value": "ten-fold"}, {"measurement": "IC50", "setting": "human IR", "value": 35, "unit": "nM"}, {"measurement": "IC50", "setting": "[1]", "value": "> 10000", "unit": "nM"}]}]}
